# Literature values, collected in patent publication US12246097B2, “Nanoparticle vaccine adjuvant and methods of use thereof” (Massachusetts Institute of Technology, priority 2018, dated 2025).
# Tested on: chick embryo eggs
# Conditions: as measured by lethal dose in chick embryo eggs
substance,measurement,value
4′-monophosporyl lipid A [MPLA],toxicity reduced by a factor (relative to LPS),more than 1000
